According to ChEMBL document CHEMBL1149525, “Synthesis and evaluation of anilinohexafluoroisopropanols as activators/modulators of LXRalpha and beta” (Bioorg Med Chem Lett, 2006):

Tests used:
[1] = biological target: T1, Oxysterols receptor LXR-alpha (Homo sapiens, UniProt Q13133)
T1 sequence (Q13133 whole entry): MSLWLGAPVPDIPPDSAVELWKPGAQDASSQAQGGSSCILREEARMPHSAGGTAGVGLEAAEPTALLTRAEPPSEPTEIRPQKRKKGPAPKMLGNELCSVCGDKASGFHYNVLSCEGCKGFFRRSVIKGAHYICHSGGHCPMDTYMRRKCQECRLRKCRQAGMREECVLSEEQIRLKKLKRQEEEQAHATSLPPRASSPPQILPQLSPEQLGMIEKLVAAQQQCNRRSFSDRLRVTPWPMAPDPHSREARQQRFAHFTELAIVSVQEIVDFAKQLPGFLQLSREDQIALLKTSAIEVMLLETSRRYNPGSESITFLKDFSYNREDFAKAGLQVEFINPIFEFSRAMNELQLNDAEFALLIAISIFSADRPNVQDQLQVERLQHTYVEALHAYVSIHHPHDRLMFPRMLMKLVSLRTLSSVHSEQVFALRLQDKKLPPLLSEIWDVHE

[2] = biological target: T1, Oxysterols receptor LXR-alpha; remark: listed apart in the source
Mus musculus [3] = test: Increase in liver triglyceride level in C57BL/6J mouse after 5 days at 10 mg/kg/day relative to control; format: functional
[4] = Liver concentration in C57BL/6J mouse after 5 days at 10 mg/kg/day; format: ADME, organism-based; conditions: read-out: Drug uptake
[5] = biological target: T2, Oxysterols receptor LXR-beta (Homo sapiens, UniProt P55055)
T2 sequence (P55055 whole entry): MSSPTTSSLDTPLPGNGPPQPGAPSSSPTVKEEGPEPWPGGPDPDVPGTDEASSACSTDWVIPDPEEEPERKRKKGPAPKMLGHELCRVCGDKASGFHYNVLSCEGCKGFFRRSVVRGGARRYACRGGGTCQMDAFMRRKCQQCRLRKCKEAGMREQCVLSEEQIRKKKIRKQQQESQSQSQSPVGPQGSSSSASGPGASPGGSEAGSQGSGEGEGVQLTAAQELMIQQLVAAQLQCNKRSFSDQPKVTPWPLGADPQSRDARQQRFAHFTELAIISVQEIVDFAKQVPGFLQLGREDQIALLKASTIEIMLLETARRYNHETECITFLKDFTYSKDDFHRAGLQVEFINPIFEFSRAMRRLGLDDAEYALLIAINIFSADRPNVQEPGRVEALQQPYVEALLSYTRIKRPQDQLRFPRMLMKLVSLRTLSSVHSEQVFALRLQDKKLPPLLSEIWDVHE

[6] = biological target: T2, Oxysterols receptor LXR-beta; remark: listed apart in the source
Mus musculus [7] = test: Increase in plasma HDL-C level in C57BL/6J mouse after 5 days at 10 mg/kg/day relative to control; format: functional
Mus musculus [8] = test: Decrease in plasma triglyceride level in C57BL/6J mouse after 5 days at 10 mg/kg/day relative to control; format: functional; set-up: scale not given: the % may be the effect or the level left
[9] = Plasma concentration in C57BL/6J mouse after 5 days at 10 mg/kg/day; format: ADME, organism-based
Mus musculus [10] = test: Increase in plasma triglyceride level in C57BL/6J mouse after 5 days at 100 mg/kg/day relative to control; format: functional
Mus musculus [11] = test: Increase in plasma HDL-C level in C57BL/6J mouse after 5 days at 100 mg/kg/day relative to control; format: functional
Mus musculus [12] = test: Increase in liver triglyceride level in C57BL/6J mouse after 5 days at 100 mg/kg/day relative to control; format: functional
[13] = Plasma concentration in C57BL/6J mouse after 5 days at 100 mg/kg/day; format: ADME, organism-based
[14] = Liver concentration in C57BL/6J mouse after 5 days at 100 mg/kg/day; format: ADME, organism-based; conditions: read-out: Drug uptake
Mus musculus [15] = test: Decrease in plasma triglyceride level in C57BL/6J mouse after 5 days at 100 mg/kg/day relative to control; format: functional; set-up: scale not given: the % may be the effect or the level left

Structure (SMILES) | EC50 [1] [nM] | IC50 [2] [nM] | also measured
CCN(Cc1ccncc1)c1ccc(C(O)(C(F)(F)F)C(F)(F)F)cc1 | 2100 | 1700 | –
CCN(Cc1ccccn1)c1ccc(C(O)(C(F)(F)F)C(F)(F)F)cc1 | 700 | 1500 | –
OC(c1ccc(N(Cc2ccccc2)CC(F)(F)F)cc1)(C(F)(F)F)C(F)(F)F | 900 | 70 | –
CCN(Cc1nc(-c2cccc(C(F)(F)F)c2)oc1C)c1ccc(C(O)(C(F)(F)F)C(F)(F)F)cc1 | 200 | 6 | Activity (Mus musculus [3]): 70%; concentration at 120 h [4]: 8200 ng/g; EC50 [5]: 60 nM; IC50 [6]: 3 nM; Activity (Mus musculus [7]): 35%; Activity (Mus musculus [8]): 12%; concentration at 120 h [9]: 700 ng/mL
CCN(Cc1cscn1)c1ccc(C(O)(C(F)(F)F)C(F)(F)F)cc1Cl | 500 | 20 | –
Cc1oc(-c2cccc(C(F)(F)F)c2)nc1CN(CC(F)(F)F)c1ccc(C(O)(C(F)(F)F)C(F)(F)F)cc1 | 700 | 13 | –
CCN(Cc1nc(-c2cccc(Cl)c2)oc1C)c1ccc(C(O)(C(F)(F)F)C(F)(F)F)cc1Cl | 300 | 2 | –
CCN(CCc1ccccc1)c1ccc(C(O)(C(F)(F)F)C(F)(F)F)cc1 | 1000 | 120 | –
CCN(Cc1ccccc1)c1ccc(C(O)(C(F)(F)F)C(F)(F)F)cc1Cl | 200 | 3 | EC50 [5]: 80 nM; Activity (Mus musculus [10]): 7%; IC50 [6]: 3 nM; Activity (Mus musculus [11]): 23%; Activity (Mus musculus [12]): 28%; concentration at 120 h [13]: 3400 ng/mL; concentration at 120 h [14]: 13000 ng/g
CCN(Cc1cccnc1)c1ccc(C(O)(C(F)(F)F)C(F)(F)F)cc1 | 4300 | 2700 | –
CCN(Cc1nc(-c2cccc(C(F)(F)F)c2)oc1C)c1ccc(C(O)(C(F)(F)F)C(F)(F)F)cc1Cl | 100 | 6 | –
CCN(Cc1ccccc1)c1ccc(C(O)(C(F)(F)F)C(F)(F)F)cc1 | 1100 | 50 | –
OC(c1ccc(N(Cc2ccccc2)CC(F)(F)F)c(Cl)c1)(C(F)(F)F)C(F)(F)F | 100 | 1 | –
CCN(Cc1cscn1)c1ccc(C(O)(C(F)(F)F)C(F)(F)F)cc1 | 3300 | 600 | –
CCN(CCc1ccccc1)c1ccc(C(O)(C(F)(F)F)C(F)(F)F)cc1Cl | 800 | 6 | –
Cc1oc(-c2cccc(Cl)c2)nc1CN(CC(F)(F)F)c1ccc(C(O)(C(F)(F)F)C(F)(F)F)cc1 | 1000 | 30 | –
CCN(c1ccc(C(O)(C(F)(F)F)C(F)(F)F)cc1Cl)C(COc1ccc(CC(=O)O)cc1)c1ccccc1 (racemic) | 5500 | 100 | –
CCN(c1ccc(C(O)(C(F)(F)F)C(F)(F)F)cc1Cl)C(COc1ccc(CCC(=O)OC)cc1)c1ccccc1 (racemic) | 1400 | 100 | –
CCN(c1ccc(C(O)(C(F)(F)F)C(F)(F)F)cc1)C(COCCO)c1ccccc1 (racemic) | > 40000 | 12000 | –
CCN(c1ccc(C(O)(C(F)(F)F)C(F)(F)F)cc1)C(C(=O)OC)c1ccccc1 (racemic) | 2300 | 700 | –

Structure (SMILES) | EC50 [1] [nM] | IC50 [2] [nM] | also measured
CCN(c1ccc(C(O)(C(F)(F)F)C(F)(F)F)cc1)C(C)(C(=O)N(C)C)c1ccccc1 (racemic) | 400 | 200 | –
CCN(c1ccc(C(O)(C(F)(F)F)C(F)(F)F)cc1)C(COCC(=O)N(C)C)c1ccccc1 (racemic) | 800 | 900 | –
CCN(c1ccc(C(O)(C(F)(F)F)C(F)(F)F)cc1Cl)C(COc1ccc(C(=O)OC)cc1)c1ccccc1 (racemic) | 700 | 60 | –
CCN(c1ccc(C(O)(C(F)(F)F)C(F)(F)F)cc1)C(C(=O)NC)c1ccccc1 (racemic) | 10900 | 11200 | –
CCN(c1ccc(C(O)(C(F)(F)F)C(F)(F)F)cc1Cl)C(CC)(C(=O)OC)c1ccccc1 (racemic) | 500 | 60 | –
CCN(c1ccc(C(O)(C(F)(F)F)C(F)(F)F)cc1)C(C(=O)O)c1ccccc1 (racemic) | 9400 | 5200 | –
CCN(c1ccc(C(O)(C(F)(F)F)C(F)(F)F)cc1)C(COCC(=O)O)c1ccccc1 (racemic) | 10000 | 61000 | –
CCN(c1ccc(C(O)(C(F)(F)F)C(F)(F)F)cc1)C(COC)c1ccccc1 (racemic) | 900 | 400 | –
CCN(c1ccc(C(O)(C(F)(F)F)C(F)(F)F)cc1)C(COCc1ccccc1)c1ccccc1 (racemic) | 1900 | 200 | –
CCN(c1ccc(C(O)(C(F)(F)F)C(F)(F)F)cc1)C(C(=O)N(C)C)c1ccccc1 (racemic) | 9300 | 13800 | –
CCN(c1ccc(C(O)(C(F)(F)F)C(F)(F)F)cc1)C(C)(C(=O)OC)c1ccccc1 (racemic) | 100 | 50 | EC50 [5]: 30 nM; IC50 [6]: 8 nM; Activity (Mus musculus [11]): 12%; Activity (Mus musculus [15]): 11%; Activity (Mus musculus [12]): 520%; concentration at 120 h [13]: 2300 ng/mL; concentration at 120 h [14]: 6300 ng/g
CCN(c1ccc(C(O)(C(F)(F)F)C(F)(F)F)cc1Cl)C(COc1ccc(CC(=O)OC)cc1)c1ccccc1 (racemic) | 1100 | 200 | –
CCN(c1ccc(C(O)(C(F)(F)F)C(F)(F)F)cc1)C(CC)(C(=O)OC)c1ccccc1 (racemic) | 300 | 50 | –
CCN(c1ccc(C(O)(C(F)(F)F)C(F)(F)F)cc1Cl)C(COc1ccc(CCC(=O)O)cc1)c1ccccc1 (racemic) | 4500 | 60 | –
COC(=O)C1(c2ccccc2)CCCCN1c1ccc(C(O)(C(F)(F)F)C(F)(F)F)cc1 (racemic) | 90 | 60 | –
COC(=O)C1(c2ccccc2)CCCN1c1ccc(C(O)(C(F)(F)F)C(F)(F)F)cc1 (racemic) | 200 | 50 | –
CCN(c1ccc(C(O)(C(F)(F)F)C(F)(F)F)cc1)C(COCC(=O)OC)c1ccccc1 (racemic) | 2200 | 600 | –
CCN(c1ccc(C(O)(C(F)(F)F)C(F)(F)F)cc1)C(C(=O)N1CCOCC1)c1ccccc1 (racemic) | 8500 | 5400 | –
CCN(c1ccc(C(O)(C(F)(F)F)C(F)(F)F)cc1)C(COCC(=O)NC)c1ccccc1 (racemic) | > 40000 | 18000 | –
CCN(c1ccc(C(O)(C(F)(F)F)C(F)(F)F)cc1Cl)C(COc1ccc(C(=O)O)cc1)c1ccccc1 (racemic) | 3700 | 100 | –
